{
  "source": "paper PMC2492869",
  "about": "(BMC Microbiology, 2008)",
  "data": [
    {"biological_target": "T1, Brucella suis urease (ure-1 operon) (Brucella suis, UniProt Q8G2P8)", "T1 construct": "gene ureC1", "T1 sequence (Q8G2P8 whole entry, looked up)": "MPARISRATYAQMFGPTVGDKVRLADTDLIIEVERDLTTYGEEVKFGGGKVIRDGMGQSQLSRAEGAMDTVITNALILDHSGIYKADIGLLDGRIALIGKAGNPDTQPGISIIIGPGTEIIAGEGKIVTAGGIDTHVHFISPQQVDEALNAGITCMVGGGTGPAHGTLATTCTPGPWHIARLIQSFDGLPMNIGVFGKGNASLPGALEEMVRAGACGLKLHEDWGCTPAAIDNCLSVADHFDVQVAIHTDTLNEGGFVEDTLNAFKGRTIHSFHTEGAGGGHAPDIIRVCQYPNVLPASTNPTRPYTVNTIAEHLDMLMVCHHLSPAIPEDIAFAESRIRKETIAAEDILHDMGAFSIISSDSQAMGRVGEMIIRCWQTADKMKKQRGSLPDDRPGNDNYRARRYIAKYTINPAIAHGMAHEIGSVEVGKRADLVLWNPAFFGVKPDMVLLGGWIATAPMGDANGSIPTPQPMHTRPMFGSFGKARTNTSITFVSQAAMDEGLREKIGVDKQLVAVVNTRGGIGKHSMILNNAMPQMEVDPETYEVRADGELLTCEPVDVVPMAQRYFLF", "test": "biochemical", "units": {"Ki": "µM"}, "values": [
      {"smiles": "CC(=O)NO", "note": "[acetohydroxamic acid]", "Ki": "770 ± 60"},
      {"smiles": "NC(=O)NO", "note": "[hydroxyurea]", "Ki": "1040 ± 310"},
      {"smiles": "NC(N)=S", "note": "[thiourea]", "Ki": "26100 ± 2300"}
    ]}
  ]
}
